Measured values from patent US5506102A (priority 1993, dated 1996).

Columns and labels:
human androgen receptor = target: T1, human androgen receptor (Homo sapiens, UniProt P10275); assay: AR transcriptional activity on MMTV-LUC, CV-1 cells, AR co-expressed with PR-A; format: cell-based; settings: AR plus PR-A, FIG. 10B
T1 sequence (P10275 1-920): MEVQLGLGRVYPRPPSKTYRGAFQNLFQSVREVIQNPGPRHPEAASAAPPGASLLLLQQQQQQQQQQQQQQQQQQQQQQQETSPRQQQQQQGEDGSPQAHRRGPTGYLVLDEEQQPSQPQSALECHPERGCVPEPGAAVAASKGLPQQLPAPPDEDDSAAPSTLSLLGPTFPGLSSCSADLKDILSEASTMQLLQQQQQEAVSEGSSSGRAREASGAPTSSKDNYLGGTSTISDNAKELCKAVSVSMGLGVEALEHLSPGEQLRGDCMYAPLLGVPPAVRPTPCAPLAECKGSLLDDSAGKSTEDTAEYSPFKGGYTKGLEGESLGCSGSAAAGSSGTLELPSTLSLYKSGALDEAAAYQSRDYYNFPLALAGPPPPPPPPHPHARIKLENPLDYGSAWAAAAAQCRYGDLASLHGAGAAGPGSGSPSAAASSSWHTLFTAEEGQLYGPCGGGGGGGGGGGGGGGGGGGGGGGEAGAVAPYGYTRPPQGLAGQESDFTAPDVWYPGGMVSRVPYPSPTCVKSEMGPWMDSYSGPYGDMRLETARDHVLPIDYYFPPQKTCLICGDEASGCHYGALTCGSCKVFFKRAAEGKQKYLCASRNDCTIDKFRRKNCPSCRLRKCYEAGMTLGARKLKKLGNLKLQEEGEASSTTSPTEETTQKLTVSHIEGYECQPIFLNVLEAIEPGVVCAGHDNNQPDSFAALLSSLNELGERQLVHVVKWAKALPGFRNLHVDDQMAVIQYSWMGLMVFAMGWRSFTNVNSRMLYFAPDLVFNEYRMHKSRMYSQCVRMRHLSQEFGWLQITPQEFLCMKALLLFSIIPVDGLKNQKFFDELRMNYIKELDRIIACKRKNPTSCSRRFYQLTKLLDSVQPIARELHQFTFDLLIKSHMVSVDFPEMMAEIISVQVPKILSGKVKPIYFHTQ
Protocol: FIGS. 10A-10B are a series of graphs showing CV-1 cells that were transiently transfected with an expression vector for the human androgen receptor (pRShAR) alone, or in combination with phPR-A together with 5 µg/ml of the MMTV-LUC reporter and 5 µg/ml of pCH110 as an internal control. […] The relative luciferase activity is calculated by dividing the normalized luciferase value at a given point by that obtained in the absence of transfected receptor or ligand. […] The data are presented as percent (%) activation, where 100% represents the maximal induction achieved by human androgen receptor at 10^ -8 M DHT. The experimental data represents mean values +/- the average deviation from the mean of quadruplicate estimations;
Cells were seeded in 12-well, 96-well or 10 cm tissue culture plates. […] 20 μg of DNA/ml of transfection buffer were used in each transfection reaction. In this mix, the concentration of the luciferase plasmids and that of the internal control plasmid pCH110 (Pharmacia, Inc.), which contains the gene for the β-galactosidase enzyme, remained constant ([…] of each plasmid DNA), while the receptor plasmid concentration varied as indicated for each experiment. […]

[1] = target: T2, human progesterone receptor isoform PR-A (Homo sapiens, UniProt P06401); assay: PR-A transactivation of MMTV-LUC reporter, transient transfection; format: cell-based; settings: 10^-7 M progesterone
T2 sequence (P06401 165-933): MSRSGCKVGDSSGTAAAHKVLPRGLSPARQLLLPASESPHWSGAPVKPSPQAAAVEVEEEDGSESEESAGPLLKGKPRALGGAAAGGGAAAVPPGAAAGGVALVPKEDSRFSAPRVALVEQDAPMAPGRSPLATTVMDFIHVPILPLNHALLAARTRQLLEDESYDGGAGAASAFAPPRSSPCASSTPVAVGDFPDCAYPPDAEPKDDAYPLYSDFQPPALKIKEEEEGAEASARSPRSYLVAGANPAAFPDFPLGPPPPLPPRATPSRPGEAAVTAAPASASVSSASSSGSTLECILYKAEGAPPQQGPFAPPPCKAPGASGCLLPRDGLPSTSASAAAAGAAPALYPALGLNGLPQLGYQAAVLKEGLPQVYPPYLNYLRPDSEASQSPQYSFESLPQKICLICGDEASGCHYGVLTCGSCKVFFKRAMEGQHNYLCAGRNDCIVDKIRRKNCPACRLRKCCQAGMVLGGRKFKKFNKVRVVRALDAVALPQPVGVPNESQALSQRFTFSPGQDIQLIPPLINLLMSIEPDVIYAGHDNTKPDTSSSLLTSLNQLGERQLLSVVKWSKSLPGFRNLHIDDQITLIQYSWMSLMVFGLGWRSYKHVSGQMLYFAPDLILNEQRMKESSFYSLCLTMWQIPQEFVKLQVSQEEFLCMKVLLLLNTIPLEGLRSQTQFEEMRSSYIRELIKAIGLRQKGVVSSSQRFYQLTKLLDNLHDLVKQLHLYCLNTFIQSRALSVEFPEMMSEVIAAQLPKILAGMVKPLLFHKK
Protocol: Cells were seeded in 12-well, 96-well or 10 cm tissue culture plates. […] 20 μg of DNA/ml of transfection buffer were used in each transfection reaction. In this mix, the concentration of the luciferase plasmids and that of the internal control plasmid pCH110 (Pharmacia, Inc.), which contains the gene for the β-galactosidase enzyme, remained constant ([…] of each plasmid DNA), while the receptor plasmid concentration varied as indicated for each experiment. Different amounts of receptor parental plasmid, pSV2-neo (Dr. Bert O'Malley, Baylor College of Medicine, Houston, Tex.) was included to keep constant the total amount of the SV40 enhancer vectors. pGEM4 plasmid DNA (Promega Biotech, Madison, Wis.) was added to balance the total DNA concentration to 20 g/reaction. For the 96-well plate experiments, transfections were performed on a Biomek 1000 Automated Laboratory Workstation (Beckman Instruments, Fullerton, Calif.).
Cells were seeded 24 hours prior to transfection in the fiat-bottom tissue culture plates ([…]) in phenol red-free DMEM containing 10% FCS. […] Using calcium phosphate co-precipitation, DNA solution was added dropwise with vortexing into an equal volume of 2X HBS pH 6.9 (280 mM NaCl. 50 mM HEPES, 1.5 mM Na2 HPO4) and precipitates were allowed to form for 20 minutes. Cells were transfected ( […] of DNA mix/well) for 6 hours and then washed with phosphate-bufferedsaline (PBS) to remove the precipitate. Cells were incubated for an additional 24 hours in phenol red-free medium containing 10% charcoal-treated FCS, with or without hormones as indicated in the text. Cell extracts were prepared as described by Berger et al., Supra, and assayed for luciferase and β-galactosidase activities. All determinations were performed in triplicates in at least two independent experiments, and were normalized for transfection efficiency by using β-galactosidase as an internal control.

Row | effect on DHT-induced AR activity in the presence of PR-A (human androgen receptor) | SMILES | progesterone-induced activation of the MMTV promoter by PR-A ([1]; CV-1 cells, FIG. 2A) | maximal induction ([1]; HeLa cells, MMTV, 250 ng of transfected DNA, FIG. 2B) | activation of the MMTV promoter by PR-A ([1]; HepG2 cells, FIG. 2C)
1 | increased by the introduction of PR-A | CC#C[C@]1(O)CC[C@H]2[C@@H]3CCC4=CC(=O)CCC4=C3[C@@H](c3ccc(C(C)=O)cc3)C[C@@]21C [ZK112993] | – | – | –
2 | – | CC(=O)[C@H]1CC[C@H]2[C@@H]3CCC4=CC(=O)CC[C@]4(C)[C@H]3CC[C@]12C [progesterone] | no progesterone-induced activation of the MMTV promoter by PR-A was observed | ten-fold | both PR-A and PR-B functioned as efficient activators
